We go through 15 compounds from patent publication US20260274832A1, “COMPOUNDS AND THEIR USE IN TREATING CANCER” (ASTRAZENECA AB, priority 2023, published 2026).

Usually DC50 stands for the concentration giving 50% degradation. A lower DC50 goes with degradation at low concentration. As usually defined, the Dmax is the greatest extent of degradation seen.

Test [1] addresses T1, AR (L702H) in LNCaP cells (Homo sapiens, UniProt P10275, L702H/T878A).
T1 construct: engineered to introduce the mutation L702H into the AR gene using CRISPR/Cas9; endogenous in cells; host or cells: LNCaP cells edited by CRISPR/Cas9 at the AR gene
Kind of test: LNCaP Androgen Receptor L702H Imaging Assay (LNCaP cells engineered by CRISPR/Cas9). Format: cell-based. The conditions noted are these: LNCaP cells with AR L702H mutation, 24 h incubation; for DC50: concentration giving 50% of maximum degradation of AR (L702H) per curve fit; for Dmax: LNCaP, maximum degradation observed, normalized as % of positive control. A digest of the protocol:
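CRISPR-engineered LNCaP cells carrying AR L702H were treated 24 h at 37 °C with a 12-point compound dose response (0.3% DMSO), then fixed and immunostained for AR with DRAQ5 nuclear counterstain. Nuclear AR was quantified by imaging, normalized to positive control; DC50 and Dmax came from Hill or bell-shaped fits.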

Test [2] has as its target T2, AR (AR-full length) in LNCaP cells (Homo sapiens, UniProt P10275, T878A).
T2 construct: the prostate cancer cell line LNCaP (expressing AR-full length); endogenous in cells; host or cells: LNCaP
Kind of test: LNCaP Androgen Receptor Imaging Assay (immunofluorescence of endogenous nuclear AR). Format: cell-based. The conditions noted are these: 24 h incubation; for DC50: concentration giving 50% of maximum degradation of AR per curve fit, single experiment or average of two or more; for Dmax: LNCaP, maximum degradation observed, normalized as % of positive control (prior art AR PROTAC at 3 μM). A digest of the protocol:
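LNCaP cells (12,000/well) received a 12-point compound dose series (0.3% DMSO) for 24 h at 37° C., then were PFA-fixed and stained for AR (AR441) and nuclei (DRAQ5). Nuclear AR was quantified by imaging, normalized to a 3 μM AR PROTAC control; DC50 and Dmax came from Hill/bell curve fits.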

Structures are written as SMILES.

T2 sequence (P10275 whole entry T878A): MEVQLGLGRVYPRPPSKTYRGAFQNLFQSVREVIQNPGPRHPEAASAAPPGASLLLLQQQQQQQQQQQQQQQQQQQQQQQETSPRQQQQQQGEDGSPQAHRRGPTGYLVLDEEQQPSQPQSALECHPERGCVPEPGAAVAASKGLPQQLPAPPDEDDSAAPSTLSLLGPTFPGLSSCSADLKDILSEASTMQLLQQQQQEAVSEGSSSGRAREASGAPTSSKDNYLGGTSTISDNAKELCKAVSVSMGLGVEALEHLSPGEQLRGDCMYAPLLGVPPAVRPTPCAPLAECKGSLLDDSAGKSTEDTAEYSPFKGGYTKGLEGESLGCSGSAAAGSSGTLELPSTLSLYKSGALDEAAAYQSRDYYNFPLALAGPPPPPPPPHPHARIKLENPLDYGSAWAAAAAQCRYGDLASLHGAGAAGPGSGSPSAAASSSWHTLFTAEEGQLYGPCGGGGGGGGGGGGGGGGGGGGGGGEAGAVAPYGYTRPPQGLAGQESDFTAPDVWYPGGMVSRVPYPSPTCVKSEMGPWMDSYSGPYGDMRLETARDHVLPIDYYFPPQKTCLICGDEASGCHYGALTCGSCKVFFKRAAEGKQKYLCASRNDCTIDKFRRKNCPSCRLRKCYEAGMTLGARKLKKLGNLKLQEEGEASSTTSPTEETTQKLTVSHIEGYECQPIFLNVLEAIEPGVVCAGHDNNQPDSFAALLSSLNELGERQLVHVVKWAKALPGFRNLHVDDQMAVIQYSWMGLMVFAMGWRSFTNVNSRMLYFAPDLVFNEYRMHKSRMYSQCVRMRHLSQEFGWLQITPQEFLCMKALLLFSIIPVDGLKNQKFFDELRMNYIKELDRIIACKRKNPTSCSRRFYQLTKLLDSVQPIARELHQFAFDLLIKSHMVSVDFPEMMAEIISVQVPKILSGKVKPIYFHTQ
T2 sequence (Q96SW2 whole entry partner): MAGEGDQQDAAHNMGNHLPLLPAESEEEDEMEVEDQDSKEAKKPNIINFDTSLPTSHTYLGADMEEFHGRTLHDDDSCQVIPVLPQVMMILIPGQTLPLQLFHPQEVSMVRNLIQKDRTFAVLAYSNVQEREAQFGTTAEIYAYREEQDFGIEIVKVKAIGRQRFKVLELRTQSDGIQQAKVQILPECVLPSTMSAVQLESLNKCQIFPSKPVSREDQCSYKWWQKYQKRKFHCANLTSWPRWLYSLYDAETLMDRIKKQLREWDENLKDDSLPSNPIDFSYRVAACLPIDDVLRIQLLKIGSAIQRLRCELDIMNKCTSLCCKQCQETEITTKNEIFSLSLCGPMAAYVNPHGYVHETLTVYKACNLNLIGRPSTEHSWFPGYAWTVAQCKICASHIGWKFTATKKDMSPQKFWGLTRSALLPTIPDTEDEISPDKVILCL
T1 sequence (P10275 whole entry L702H/T878A): as the sequence (P10275 whole entry T878A) above, with L702H counted along it
T1 sequence (Q96SW2 whole entry partner): as the sequence (Q96SW2 whole entry partner) above

Take `N#Cc1c[nH]c2c(N3CCC(c4ccc(N5CCC(N6CCC(n7ccc8c(N9CCC(=O)NC9=O)cccc87)CC6)CC5)cc4)CC3)ccc(Cl)c12` [Example 111, 4-Chloro-7-[4-(4-{4-[4-(2,4-dioxo-1,3-diazinan-1-yl)-1H-indol-1-yl][1,4′-bipiperidin]-1′-yl}phenyl)piperidin-1-yl]-1H-indole-3-carbonitrile]: in test [1], half-maximal degradation (DC50) was put at 5 nM and the Dmax came out at 106%. In test [2], half-maximal degradation (DC50) was put at 4 nM and the Dmax stood at 99%.
With `COc1cc(N2CCN(CC3CCN(c4ccc(C5CCN(c6ccc(Cl)c7c(C#N)cn(C)c67)CC5)cc4)CC3)CC2)cc2c1C(=O)N(C1CCC(=O)NC1=O)C2` (centres unmarked) [Example 112, 4-chloro-7-(4-{4-[4-({4-[2-(2,6-dioxopiperidin-3-yl)-7-methoxy-1-oxo-2,3-dihydro-1H-isoindol-5-yl]piperazin-1-yl}methyl)piperidin-1-yl]phenyl}piperidin-1-yl)-1-methyl-1H-indole-3-carbonitrile], the figures for the DC50 in test [1] and in test [2] were 17 nM and over 3000 nM, respectively. For the same compound, the Dmax in test [1] was 87%.
In the case of `N#Cc1c[nH]c2c(N3CCC(c4cccc(N5CCC(CN6CCN(c7ccc8c(c7)CN(C7CCC(=O)NC7=O)C8=O)CC6)CC5)c4)CC3)ccc(Cl)c12` (centres unmarked) [Example 113, 4-Chloro-7-(4-{3-[4-({4-[2-(2,6-dioxopiperidin-3-yl)-1-oxo-2,3-dihydro-1H-isoindol-5-yl]piperazin-1-yl}methyl)piperidin-1-yl]phenyl}piperidin-1-yl)-1H-indole-3-carbonitrile], in test [1], the DC50 was determined as 36 nM and the Dmax was found to be 76%. Also, in test [2], the DC50 came out at 19 nM and the Dmax turned out to be 92%.
For `Cc1cc2c(N3CCC(=O)NC3=O)cccc2n1C1CCN(CC2CCN(c3ccc([C@@H]4CCCN(c5ccc(Cl)c6c(C#N)c[nH]c56)C4)cc3)CC2)CC1` [Example 114, 4-Chloro-7-[(3S)-3-{4-[4-({4-[4-(2,4-dioxo-1,3-diazinan-1-yl)-2-methyl-1H-indol-1-yl]piperidin-1-yl}methyl)piperidin-1-yl]phenyl}piperidin-1-yl]-1H-indole-3-carbonitrile], in that order: 31 nM, 101%, 19 nM and 101%.
As to `Cc1cc2c(N3CCC(=O)NC3=O)cccc2n1C1CCN(CC2CCN(c3ccc(C4CCN(c5ccc(Cl)c6c(C#N)c[nH]c56)CC4)cc3)CC2)CC1` [Example 123, 4-Chloro-7-(4-{4-[4-({4-[4-(2,4-dioxo-1,3-diazinan-1-yl)-2-methyl-1H-indol-1-yl]piperidin-1-yl}methyl)piperidin-1-yl]phenyl}piperidin-1-yl)-1H-indole-3-carbonitrile], the DC50 worked out at 18 nM in test [1] and 14 nM in test [2]. Besides, the Dmax in test [1] was found to be 104%; in test [2] it was 95%.
As for `N#Cc1c[nH]c2c(N3CCC(c4cnc(N5CCC(CN6CCN(c7ccc8c(c7)CN(C7CCC(=O)NC7=O)C8=O)CC6)CC5)nc4)CC3)ccc(Cl)c12` (centres unmarked) [Example 124, 4-Chloro-7-(4-{2-[4-({4-[2-(2,6-dioxopiperidin-3-yl)-1-oxo-2,3-dihydro-1H-isoindol-5-yl]piperazin-1-yl}methyl)piperidin-1-yl]pyrimidin-5-yl}piperidin-1-yl)-1H-indole-3-carbonitrile], in test [1], it took 9 nM to reach half-maximal degradation (DC50) and the Dmax worked out at 93%. In test [2], the DC50 worked out at 3 nM and the Dmax is 95%.
For `N#Cc1c[nH]c2c(N3CCC(c4cnc(N5CCC(CN6CCC(n7ccc8c(N9CCC(=O)NC9=O)cccc87)CC6)CC5)nc4)CC3)ccc(Cl)c12` [Example 125, 4-Chloro-7-(4-{2-[4-({4-[4-(2,4-dioxo-1,3-diazinan-1-yl)-1H-indol-1-yl]piperidin-1-yl}methyl)piperidin-1-yl]pyrimidin-5-yl}piperidin-1-yl)-1H-indole-3-carbonitrile], in test [1], it took 9 nM to reach half-maximal degradation (DC50) and the Dmax is 93%. In test [2], the DC50 is 4 nM and the Dmax amounted to 102%.
On to `N#Cc1c[nH]c2c(N3CCC(c4ccc(N5CCO[C@H](CN6CCN(c7ccc8c(c7)CN(C7CCC(=O)NC7=O)C8=O)CC6)C5)cc4)CC3)ccc(F)c12` (stereo partly drawn) [Example 126, 7-(4-{4-[(2R)-2-({4-[2-(2,6-dioxopiperidin-3-yl)-1-oxo-2,3-dihydro-1H-isoindol-5-yl]piperazin-1-yl}methyl)morpholin-4-yl]phenyl}piperidin-1-yl)-4-fluoro-1H-indole-3-carbonitrile], for which, in test [1], the DC50 stood at 2 nM and the Dmax was 107%. Also, in test [2], the DC50 stood at 4 nM and the Dmax is 98%.
With `N#Cc1c[nH]c2c(N3CCC(c4ccc(N5CCO[C@H](CN6CCN(c7ccc8c(c7)CN(C7CCC(=O)NC7=O)C8=O)CC6)C5)cc4)CC3)ccc(Cl)c12` (stereo partly drawn) [Example 127, 4-Chloro-7-(4-{4-[(2R)-2-({4-[2-(2,6-dioxopiperidin-3-yl)-1-oxo-2,3-dihydro-1H-isoindol-5-yl]piperazin-1-yl}methyl)morpholin-4-yl]phenyl}piperidin-1-yl)-1H-indole-3-carbonitrile], in test [1], it took 4 nM to reach half-maximal degradation (DC50) and the Dmax was 110%. Besides, in test [2], the DC50 is 4 nM and the Dmax was 100%.
As for `N#Cc1c[nH]c2c(N3CCC(c4ccc(N5CC6(CCC(CN7CCN(c8ccc9c(c8)CN(C8CCC(=O)NC8=O)C9=O)CC7)CC6)C5)cc4)CC3)ccc(F)c12` (centres unmarked) [Example 128, 7-(4-{4-[7-({4-[2-(2,6-Dioxopiperidin-3-yl)-1-oxo-2,3-dihydro-1H-isoindol-5-yl]piperazin-1-yl}methyl)-2-azaspiro[3.5]nonan-2-yl]phenyl}piperidin-1-yl)-4-fluoro-1H-indole-3-carbonitrile], the DC50 in test [1] stood at 61 nM; in test [2], 26 nM. Besides, the Dmax in test [1] was 103%; in test [2] it was 102%.
On the same counts, the results for `N#Cc1c[nH]c2c(N3CCC(c4ccc(N5CC6(CCC(CN7CCN(c8ccc9c(c8)CN(C8CCC(=O)NC8=O)C9=O)CC7)CC6)C5)cc4)CC3)ccc(Cl)c12` (centres unmarked) [Example 129, 4-Chloro-7-(4-{4-[7-({4-[2-(2,6-dioxopiperidin-3-yl)-1-oxo-2,3-dihydro-1H-isoindol-5-yl]piperazin-1-yl}methyl)-2-azaspiro[3.5]nonan-2-yl]phenyl}piperidin-1-yl)-1H-indole-3-carbonitrile] are 29 nM, 20 nM, 99% and 95%.
For `N#Cc1c[nH]c2c(N3CCC[C@@H](c4ccc(N5CC6(CCC(CN7CCN(c8ccc9c(c8)CN(C8CCC(=O)NC8=O)C9=O)CC7)CC6)C5)cc4)C3)ccc(Cl)c12` (stereo partly drawn) [Example 130, 4-Chloro-7-[(3S)-3-{4-[7-({4-[2-(2,6-dioxopiperidin-3-yl)-1-oxo-2,3-dihydro-1H-isoindol-5-yl]piperazin-1-yl}methyl)-2-azaspiro[3.5]nonan-2-yl]phenyl}piperidin-1-yl]-1H-indole-3-carbonitrile], in that order: 42 nM, 31 nM, 78% and 99%.
For `N#Cc1c[nH]c2c(N3CCC[C@@H](c4ccc(N5CC6(CCC(CN7CCC(n8ccc9c(N%10CCC(=O)NC%10=O)cccc98)CC7)CC6)C5)cc4)C3)ccc(Cl)c12` [Example 131, 4-Chloro-7-[(3S)-3-{4-[7-({4-[4-(2,4-dioxo-1,3-diazinan-1-yl)-1H-indol-1-yl]piperidin-1-yl}methyl)-2-azaspiro[3.5]nonan-2-yl]phenyl}piperidin-1-yl]-1H-indole-3-carbonitrile], in that order: 41 nM, 17 nM, 94% and 105%.
Regarding `Cn1c(C2CCN(CC3CCN(c4ccc([C@H]5CCCN(c6ccc(Cl)c7c(C#N)n[nH]c67)C5)cc4)CC3)CC2)cc2ccc(N3CCC(=O)NC3=O)cc21` [Example 132, 4-Chloro-7-[(3R)-3-{4-[4-({4-[6-(2,4-dioxo-1,3-diazinan-1-yl)-1-methyl-1H-indol-2-yl]piperidin-1-yl}methyl)piperidin-1-yl]phenyl}piperidin-1-yl]-1H-indazole-3-carbonitrile], in test [1], the DC50 was determined as 5 nM and the Dmax was 115%. Further, in test [2], it took 6 nM to reach half-maximal degradation (DC50) and the Dmax was 98%.
Take `N#Cc1n[nH]c2c(N3CCC[C@@H](c4ccc(N5CCC(CN6CCN(c7ccc8c(c7)CN(C7CCC(=O)NC7=O)C8=O)CC6)CC5)cc4)C3)ccc(F)c12` (stereo partly drawn) [Example 133, 7-[(3S)-3-{4-[4-({4-[2-(2,6-Dioxopiperidin-3-yl)-1-oxo-2,3-dihydro-1H-isoindol-5-yl]piperazin-1-yl}methyl)piperidin-1-yl]phenyl}piperidin-1-yl]-4-fluoro-1H-indazole-3-carbonitrile]: in test [1], half-maximal degradation (DC50) was put at 8 nM and the Dmax turned out to be 97%. In test [2], it took 4 nM to reach half-maximal degradation (DC50) and the Dmax worked out at 103%.
